Assay results from paper PMC11460632, “Chemical modification of hyaluronan oligosaccharides differentially modulates hyaluronan–hyaladherin interactions” (The Journal of Biological Chemistry, 2024).
Entries after “also recorded” stand apart in the source; their conditions may differ. Read-outs that look alike come from different tables or passages of the source.

Experiments:
recombinant human TSG-6 = target: T1, recombinant human TSG-6 (Homo sapiens, UniProt P19827+P98066); experiment: In vitro HC-transfer assay (IαI + rhTSG-6, Western blot anti-HC1); type: biochemical; settings: 15 μM HA, 1.8 μM IαI, rhTSG-6, 2 h at 37 °C; for Substrate for HC transfer: Table 6; for Activity as substrate for HC transfer (text): Western blot anti-HC1
T1 construct: TSG-6–mediated HC-transfer assays (using full-length TSG6); purchased R&D Systems
T1 sequence (P98066 18-277): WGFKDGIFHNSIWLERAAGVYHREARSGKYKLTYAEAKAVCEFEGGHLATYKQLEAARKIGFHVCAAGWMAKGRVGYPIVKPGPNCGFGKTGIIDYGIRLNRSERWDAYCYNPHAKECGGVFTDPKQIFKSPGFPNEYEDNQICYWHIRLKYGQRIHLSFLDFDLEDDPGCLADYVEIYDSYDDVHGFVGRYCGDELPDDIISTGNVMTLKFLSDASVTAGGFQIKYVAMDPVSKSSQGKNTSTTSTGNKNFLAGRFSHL
T1 sequence (P19827 35-672 limits assumed): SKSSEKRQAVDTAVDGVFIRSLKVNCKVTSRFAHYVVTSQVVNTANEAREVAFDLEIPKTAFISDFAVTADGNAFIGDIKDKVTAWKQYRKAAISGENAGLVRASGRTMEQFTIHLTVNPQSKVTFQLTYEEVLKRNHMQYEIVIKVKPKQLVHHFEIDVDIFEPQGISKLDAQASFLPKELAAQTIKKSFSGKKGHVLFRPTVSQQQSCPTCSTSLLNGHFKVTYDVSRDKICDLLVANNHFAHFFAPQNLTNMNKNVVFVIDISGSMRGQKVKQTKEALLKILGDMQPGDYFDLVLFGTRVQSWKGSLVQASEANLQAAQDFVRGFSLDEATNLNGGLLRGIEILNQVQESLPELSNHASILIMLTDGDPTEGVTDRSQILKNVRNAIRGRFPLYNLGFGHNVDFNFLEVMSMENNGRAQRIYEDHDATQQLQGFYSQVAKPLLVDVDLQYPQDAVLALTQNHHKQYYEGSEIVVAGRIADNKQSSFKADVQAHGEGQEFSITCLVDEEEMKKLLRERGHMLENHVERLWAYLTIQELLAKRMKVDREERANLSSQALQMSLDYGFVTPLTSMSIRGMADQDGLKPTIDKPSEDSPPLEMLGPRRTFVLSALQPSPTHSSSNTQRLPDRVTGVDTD
Procedure: Covalent transfer of HC from IαI onto unmodified and chemically modified HA oligosaccharides was analyzed using the assay described previously ([26]). All reactions were performed using a buffer of 20 mM Hepes, pH 7.5, 150 mM NaCl, and 5 mM MgCl2. In a “standard” assay, HA oligosaccharides were at 15 μM, human IαI ([97]) 1.8 at μM (based on a molecular weight of 180 kDa), and recombinant human TSG-6 (R&D Systems) at 2.8 μM (based on a molecular weight of 35 kDa). Reaction mixtures were analyzed by SDS-PAGE using 4 to 12% bis-tris polyacrylamide gels (Invitrogen). For Western blot analysis, proteins were transferred onto nitrocellulose membrane (GE Healthcare) and incubated with antisera against HC1 (CP7, 1:10,000; ([98])). Bound primary antibody was detected using goat-anti-rabbit IgG conjugated to IR dye (LI-COR Biosciences) and blots imaged using an Odyssey Clx near-IR fluorescence imaging system (LICOR Biosciences).

hisCD44_HABD^20–169 = target: T2, hisCD44_HABD^20–169 (Homo sapiens, UniProt P16070); experiment: MST of HA oligosaccharides binding to hisCD44_HABD^20–169; settings: for % HAx^AN: percentage of binding affinity (KB) compared to the unmodified oligosaccharide of the same length / Kd: Table 5; for Kd: 10 mM Hepes pH 7.5, 150 mM NaCl, 0.05% Tween-20, 25 °C, mean ± SD, three titrations, read-out: KD; for % Binding affinity hisCD44_HABD^20–169: Table 6, relative to unmodified oligosaccharide of the same length, by MST
T2 construct: A novel construct consisting of residues 20 to 169 of human CD44 and an N-terminal six-histidine tag; made in house
T2 sequence (P16070 20-169): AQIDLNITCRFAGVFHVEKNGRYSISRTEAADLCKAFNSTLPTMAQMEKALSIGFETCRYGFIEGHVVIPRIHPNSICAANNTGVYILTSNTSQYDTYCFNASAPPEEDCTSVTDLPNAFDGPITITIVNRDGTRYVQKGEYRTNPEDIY
Procedure: For hisCD44_HABD^20–169, interactions with HA oligosaccharides were assessed using MST. Protein (200 nM) was labeled with 5 μM red-Tris-NTA-650 dye following the manufacturer’s instructions in 10 mM Hepes, pH 7.4, 150 mM NaCl, 0.05% (v/v) Tween-20 (interaction buffer). Stock solutions of HA oligosaccharides (5 mM in interaction buffer) were serially diluted (1:1 in interaction buffer) 16 times before each concentration was mixed with an equal volume of labeled protein (10 nM final concentration hisCD44_HABD^20–169). Samples were loaded into standard glass capillaries (NanoTemper) and thermophoresis measured at 25 °C (with active temperature control) using a Monolith NT.115pico instrument (NanoTemper) running NT Control software (version 1.0.1). All experiments were performed in triplicate and data analyzed with the “KD fit model” in the NT Analysis software (version 2.0.2).

Link_TSG6 = target: T3, Link_TSG6 (Homo sapiens, UniProt P98066); experiment: ITC of HA oligosaccharides binding to Link_TSG6; settings: for N: 0.029 mM Link_TSG6, 0.29 mM oligosaccharide; for % Binding affinity Link_TSG6: Table 6, relative to unmodified oligosaccharide of the same length, by ITC
T3 construct: made in house
T3 sequence (P98066 36-129 limits assumed): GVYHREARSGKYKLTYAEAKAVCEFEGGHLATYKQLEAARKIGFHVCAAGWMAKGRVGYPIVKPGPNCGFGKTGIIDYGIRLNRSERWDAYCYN
Procedure: ITC experiments were performed using a MicroCal PEAQ-ITC instrument (Malvern Instruments). Oligosaccharide stock solutions were prepared at 0.29 mM (in 5 mM MES, pH 6.0) and injected (18 × 2 μl with 120 s spacing between injections) into the cell containing ∼200 μl Link_TSG6 (0.029 mM) in matched buffer at 25 °C. Data were fit to a one site binding model, after subtracting the heats from the last three injections to account for heat of dilution of the oligosaccharide into buffer. Each oligosaccharide was analyzed in four independently performed ITC experiments.

[1] = Table 4, ITC, 25 °C, 5 mM MES pH 6.0, mean ± SEM, four titrations
[2] = Table 4, ITC, 25 °C, 5 mM MES pH 6.0, mean ± SEM
[3] = Table 4, ITC, 25 °C, 5 mM MES pH 6.0, mean ± SEM, four titrations, read-out: KD

SMILES	Substrate for HC transfer (recombinant human TSG-6)	% of binding to hisCD44_HABD^20–169 compared to the unmodified oligosaccharide of the same length (hisCD44_HABD^20–169; MST)	% HAx^AN: percentage of binding affinity (KB) compared to the unmodified oligosaccharide of the same length (hisCD44_HABD^20–169; MST)	Kd (hisCD44_HABD^20–169; MST)	% Binding affinity hisCD44_HABD^20–169 (hisCD44_HABD^20–169)	N (Link_TSG6; [1])	ΔG (Link_TSG6; [2])	ΔH (Link_TSG6; [2])	−TΔS (Link_TSG6; [2])	Kd (Link_TSG6; [3])	% Binding affinity Link_TSG6 (Link_TSG6)	Activity as substrate for HC transfer (text) (recombinant human TSG-6)	% of binding to Link_TSG6 compared to the unmodified oligosaccharide of the same length (Link_TSG6; ITC)	Fold increase in affinity for Link_TSG6 compared to the unmodified oligosaccharide (Link_TSG6; ITC)	Kd (Link_TSG6; ITC, read-out: KD for Link_TSG6)	Fold increase in affinity for CD44_HABD compared to the unmodified oligosaccharide (hisCD44_HABD^20–169; MST)	Fold reduction in affinity for Link_TSG6 compared to the unmodified oligosaccharide (Link_TSG6; ITC)
CC(=O)N[C@H]1[C@H](O[C@H]2[C@H](O)[C@@H](O)[C@H](O[C@H]3[C@H](O)[C@@H](CO)O[C@@H](O[C@H]4[C@H](O)[C@@H](O)[C@H](O[C@H]5[C@H](O)[C@@H](CO)O[C@@H](O[C@H]6[C@H](O)[C@@H](O)[C@H](O[C@@H]([C@H](O)[C@H](O)CO)[C@H](CNc7cccc8c7CCC8)NC(C)=O)O[C@@H]6C(=O)O)[C@@H]5NC(C)=O)O[C@@H]4C(=O)O)[C@@H]3NC(C)=O)O[C@@H]2C(=O)O)O[C@H](CO)[C@@H](O)[C@@H]1O[C@@H]1O[C@H](C(=O)O)[C@@H](O)[C@H](O)[C@H]1O [HA8-4AI]	Yes	37%	37%	139 ± 43 µM	37%	1.01 ± 0.02	-9.15 ± 0.16 kcal/mol	-7.02 ± 0.40 kcal/mol	−2.13 ± 0.53 kcal•mol^a1	0.22 ± 0.05 µM	141%						
COc1ccc(C(=O)O)c(NC[C@H](NC(C)=O)[C@@H](O[C@@H]2O[C@H](C(=O)O)[C@@H](O[C@@H]3O[C@H](CO)[C@@H](O)[C@H](O[C@@H]4O[C@H](C(=O)O)[C@@H](O[C@@H]5O[C@H](CO)[C@@H](O)[C@H](O[C@@H]6O[C@H](C(=O)O)[C@@H](O)[C@H](O)[C@H]6O)[C@H]5NC(C)=O)[C@H](O)[C@H]4O)[C@H]3NC(C)=O)[C@H](O)[C@H]2O)[C@H](O)[C@H](O)CO)c1 [HA6-2A4MBA]	Yes	52%	52%	198 ± 29 µM	52%	1.00 ± 0.02	-8.64 ± 0.04 kcal/mol	-10.07 ± 0.28 kcal/mol	1.44 ± 0.25 kcal•mol^a1		238%	weak substrates; also recorded: could become covalently coupled to an HC	238%	2.4 fold	0.46 µM		
CC(=O)N[C@H]1[C@H](O[C@H]2[C@H](O)[C@@H](O)[C@H](O[C@H]3[C@H](O)[C@@H](CO)O[C@@H](O[C@H]4[C@H](O)[C@@H](O)[C@H](O[C@H]5[C@H](O)[C@@H](CO)O[C@@H](O[C@H]6[C@H](O)[C@@H](O)[C@H](O[C@@H]([C@H](O)[C@H](O)CO)[C@H](CNc7ccc8c(c7)CCC8)NC(C)=O)O[C@@H]6C(=O)O)[C@@H]5NC(C)=O)O[C@@H]4C(=O)O)[C@@H]3NC(C)=O)O[C@@H]2C(=O)O)O[C@H](CO)[C@@H](O)[C@@H]1O[C@@H]1O[C@H](C(=O)O)[C@@H](O)[C@H](O)[C@H]1O [HA8-5AI]	Yes	96%	96%	54 ± 10 µM	96%	0.97 ± 0.02	-9.34 ± 0.11 kcal/mol	-7.43 ± 0.25 kcal/mol	−1.91 ± 0.33 kcal•mol^a1	0.15 ± 0.03 µM	207%		207%				
CC(=O)N[C@H]1[C@H](O[C@H]2[C@H](O)[C@@H](O)[C@H](O[C@H]3[C@H](O)[C@@H](CO)O[C@@H](O[C@H]4[C@H](O)[C@@H](O)[C@H](O[C@@H]([C@H](O)[C@H](O)CO)[C@H](CNc5cccc6c5CCC6)NC(C)=O)O[C@@H]4C(=O)O)[C@@H]3NC(C)=O)O[C@@H]2C(=O)O)O[C@H](CO)[C@@H](O)[C@@H]1O[C@@H]1O[C@H](C(=O)O)[C@@H](O)[C@H](O)[C@H]1O [HA6-4AI]	No	28%	28%	369 ± 43 µM	28%	0.97 ± 0.03	-7.98 ± 0.03 kcal/mol	-7.16 ± 0.32 kcal/mol	−0.82 ± 0.30 kcal•mol^a1	1.42 ± 0.06 µM	77%	No HC•HA6 complexes were observed					
COc1ccc(C(=O)O)c(NC[C@H](NC(C)=O)[C@@H](O[C@@H]2O[C@H](C(=O)O)[C@@H](O[C@@H]3O[C@H](CO)[C@@H](O)[C@H](O[C@@H]4O[C@H](C(=O)O)[C@@H](O[C@@H]5O[C@H](CO)[C@@H](O)[C@H](O[C@@H]6O[C@H](C(=O)O)[C@@H](O[C@@H]7O[C@H](CO)[C@@H](O)[C@H](O[C@@H]8O[C@H](C(=O)O)[C@@H](O)[C@H](O)[C@H]8O)[C@H]7NC(C)=O)[C@H](O)[C@H]6O)[C@H]5NC(C)=O)[C@H](O)[C@H]4O)[C@H]3NC(C)=O)[C@H](O)[C@H]2O)[C@H](O)[C@H](O)CO)c1 [HA8-2A4MBA]	Yes	141%	141%	36 ± 9 µM	141%	1.04 ± 0.08	-8.23 ± 0.40 kcal/mol	-8.06 ± 1.55 kcal/mol	−0.16 ± 1.94 kcal•mol^a1	1.46 ± 0.96 µM	21%		21%			1.4 fold	4.8 fold
CC(=O)N[C@H]1[C@H](O[C@H]2[C@H](O)[C@@H](O)[C@H](O[C@H]3[C@H](O)[C@@H](CO)O[C@@H](O[C@H]4[C@H](O)[C@@H](O)[C@H](O[C@H]5[C@H](O)[C@@H](CO)O[C@@H](O[C@H]6[C@H](O)[C@@H](O)[C@H](O[C@@H]([C@H](O)[C@H](O)CO)[C@H](CNc7cc[nH]n7)NC(C)=O)O[C@@H]6C(=O)O)[C@@H]5NC(C)=O)O[C@@H]4C(=O)O)[C@@H]3NC(C)=O)O[C@@H]2C(=O)O)O[C@H](CO)[C@@H](O)[C@@H]1O[C@@H]1O[C@H](C(=O)O)[C@@H](O)[C@H](O)[C@H]1O [HA8-3APY]	Yes	23%	23%	220 ± 22 µM	23%	1.19 ± 0.06	-8.97 ± 0.07 kcal/mol	-5.70 ± 0.34 kcal/mol	−3.28 ± 0.28 kcal•mol^a1	0.27 ± 0.03 µM	115%						
